Experimental data from patent US6596759B2, “Medicament for treatment of irritable bowel syndrome” (Mitsubishi Chemical Corporation, priority 1997, dated 2003).
“Also recorded” adds a separate entry of the source. Marks after values point to notes of the source that are not given here.

How the values were obtained:
[1] = system: defecation number induced by restraint stress in rats; test: Increase of defecation number induced by restraint stress (animal model of irritable bowel syndrome); format: in vivo; details: rat; for Effect on the defecation-suppressing action of the medicament of the present invention (combination of drugs): other drug given 1 hour, medicament 30 minutes before the restraint, FIG. 1; for Suppressive action on stress-induced defecation at a high dose (in words): high dose (amitriptyline 100 mg/kg, diazepam 30 mg/kg); for Suppression of the increase of defecation number induced by the restraint (in words): over the doses of Table 3
Protocol: Increase of defecation number induced by restraint stress has widely been used as a pathological model of irritable bowel syndrome (Miyata et al., J. Pharmacol. Exp. Ther., 261, pp.297-303, 1992). Therefore, pathological model animals of irritable bowel syndrome were prepared according to the method of Williams et al. (Williams et al., Gastroenterology, 94, pp.611-621, 1988) and used for evaluation of the effectiveness of the medicament of the present invention. The medicament of the present invention was administered to the rats, and after 1 hour, their forelegs were fixed on their trunks with adhesive tapes under ether anesthesia (load of restraint stress). One hour after the restraint, defecation number was counted and the number was compared with that of the control group. In the experiments using a combination of drugs, the medicament of the present invention was administered to the animals 30 minutes before the restraint, and the other drug was administered 1 hour before the restraint.

animal model = details: cited from earlier work
[2] = system: defecation induced by forced swimming stress in rats; details: rat; cited from earlier work
[3] = system: patients with irritable bowel syndrome; details: double-blind test; cited from earlier work

Row | SMILES | Suppression rate of defecation number (%) ([1]; oral, 10 mg/kg) | Suppression rate of defecation number (%) ([1]; oral, 30 mg/kg) | Suppression rate of defecation number (%) ([1]; oral, 100 mg/kg) | Suppression of the increase of defecation number induced by the restraint (in words) [1] | other results
1 | CNCCC(Oc1ccc(C(F)(F)F)cc1)c1ccccc1 (stereo not shown) [Fluoxetin] | 24% | 15% | 26% |  | 
2 | c1cnc(N2CCNCC2)nc1 [1-PP, 1-(2-pyrimidinyl)piperazine] |  |  |  |  | Effect on the defecation-suppressing action of the medicament of the present invention (combination of drugs) [1]: inhibited; also recorded: antagonized
3 | CN1C(=O)CN=C(c2ccccc2)c2cc(Cl)ccc21 [Diazepam, diazepam] | 36% | 77* % |  |  | Suppression rate of defecation number (%) ([1]; oral, 3 mg/kg): 26%; Suppressive action on stress-induced defecation at a high dose (in words) ([1]; oral): exhibited significant suppressive actions; Efficacy on stress-induced defecation at a lower dose (in words) ([1]; oral): no efficacy
4 | COc1ccccc1N1CCN(CC(C(=O)NC(C)(C)C)c2ccccc2)CC1 (stereo not shown) [WAY100135, N-tert-butyl-3-(4-(2-methoxyphenyl)piperazin-1-yl)-2-phenyl-propanamide] |  |  |  |  | Effect on the defecation-suppressing action of the medicament of the present invention (combination of drugs) [1]: inhibited
5 | c1ccc2c(c1)OC[C@H](CNCCCOc1ccc3c(c1)OCO3)O2 [Compound No. 1, 5-[3 [(2S)-(1,4-benzodioxan-2-ylmethyl)amino]propoxy]-1,3-benzo-dioxol] |  |  |  | dose-dependently suppressed | Anxiolytic activity (animal model): anxiolytic activity of the medicament of the present invention was observed; Suppression rate of defecation number (%) ([1]; oral, 0.3 mg/kg): 29%; Suppression rate of defecation number (%) ([1]; oral, 1 mg/kg): 45* %; Suppression rate of defecation number (%) ([1]; oral, 3 mg/kg): 81* %
6 | O=C1CC2(CCCC2)CC(=O)N1CCCCN1CCN(c2ncccn2)CC1 [Buspirone, buspirone] | 12% | 12% | 44% | failed to exhibit significant efficacy | Defecation suppressing activity, forced swimming stress [2]: exhibited significant defecation suppressing activity
7 | CCCN(CCC)C1CCc2cccc(O)c2C1 (stereo not shown) [8-OH-DPAT, 8-hydroxy-2-(di-n-propylamino)tetralin] |  |  |  | the defecation due to the stress was suppressed | Suppression rate of defecation number (%) ([1]; intraperitoneal, 0.03 mg/kg): 25%; Suppression rate of defecation number (%) ([1]; intraperitoneal, 0.1 mg/kg): 74* %; Suppression rate of defecation number (%) ([1]; intraperitoneal, 0.3 mg/kg): 97* %
8 | O=C1[C@@H]2[C@H]3CC[C@H](C3)[C@@H]2C(=O)N1CCCCN1CCN(c2ncccn2)CC1 [Tandospirone, tandospirone] |  | 8% | 4% | failed to exhibit significant efficacy | Suppression rate of defecation number (%) ([1]; oral, 300 mg/kg): 44%; Therapeutic efficacy in irritable bowel syndrome compared with a placebo [3]: failed to give a significant difference
9 | CN(C)CCC=C1c2ccccc2CCc2ccccc21 [Amitriptyline, amitriptyline] | 17% | 6% | 69* % |  | Suppressive action on stress-induced defecation at a high dose (in words) ([1]; oral): exhibited significant suppressive actions; Efficacy on stress-induced defecation at a lower dose (in words) ([1]; oral): no efficacy
